# Legend:
# Format in all cases: in vivo
# Conditions in all cases: evaluated after 13 days
# Setaria faberi (SETFA) [1] = assay: Pre-emergence Test, Setaria faberi (SETFA)
# [2] = system: Echinochloa crus-galli (ECHCG); assay: Pre-emergence Test, Echinochloa crus-galli (ECHCG)
# Zea mays (ZEAMX) [3] = assay: Pre-emergence Test, Zea mays (ZEAMX)
# [4] = system: Ipomoea hederacea (IPOHE); assay: Pre-emergence Test, Ipomoea hederacea (IPOHE)
# [5] = system: Amaranthus palmeri (AMAPA); assay: Pre-emergence Test, Amaranthus palmeri (AMAPA)
# [6] = system: Amaranthus retoflexus (AMARE); assay: Pre-emergence Test, Amaranthus retoflexus (AMARE)
# Setaria faberi (SETFA) [7] = assay: Post-emergence Test, Setaria faberi (SETFA); design: key to percentage damage caused to the plant, SETFA (five-point scale): 5=81-100%, 4=61-80%, 3=41-60%, 2=21-40%, 1=0-20% damage
# How it was run: (§1)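 Tested at 1000 g/ha unless otherwise stated. Plants were held at 24/16 °C day/night with a 14 h light period. Percent damage was read at 13 days and reported in five bands.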
# [8] = system: Echinochloa crus-galli (ECHCG); assay: Post-emergence Test, Echinochloa crus-galli (ECHCG); design: key to percentage damage caused to the plant, ECHCG (five-point scale): 5=81-100%, 4=61-80%, 3=41-60%, 2=21-40%, 1=0-20% damage
# How it was run: as §1
# Zea mays (ZEAMX) [9] = assay: Post-emergence Test, Zea mays (ZEAMX); design: key to percentage damage caused to the plant, ZEAMX (five-point scale): 5=81-100%, 4=61-80%, 3=41-60%, 2=21-40%, 1=0-20% damage
# How it was run: as §1
# [10] = system: Ipomoea hederacea (IPOHE); assay: Post-emergence Test, Ipomoea hederacea (IPOHE); design: key to percentage damage caused to the plant, IPOHE (five-point scale): 5=81-100%, 4=61-80%, 3=41-60%, 2=21-40%, 1=0-20% damage
# How it was run: as §1
# [11] = system: Amaranthus palmeri (AMAPA); assay: Post-emergence Test, Amaranthus palmeri (AMAPA); design: key: 5=81-100%, 4=61-80%, 3=41-60%, 2=21-40%, 1=0-20% damage
# How it was run: as §1
# [12] = system: Amaranthus retoflexus (AMARE); assay: Post-emergence Test, Amaranthus retoflexus (AMARE); design: key to percentage damage caused to the plant, AMARE (five-point scale): 5=81-100%, 4=61-80%, 3=41-60%, 2=21-40%, 1=0-20% damage
# How it was run: as §1
structure (smiles),measurement,setting,value
"Cn1c(Cn2ccc(C(F)(F)F)n2)cc(=O)c(C(=O)O)c1-c1ccc(C#N)c(Cl)c1 [Compound 117, 2-(3-chloro-4-cyano-phenyl)-1-methyl-4-oxo-6-[[3-(trifluoromethyl)pyrazol-1-yl]methyl]pyridine-3-carboxylic acid]","Pre-emergence Test SETFA, percentage damage caused to the plant (five-point scale)",Setaria faberi (SETFA) [1]; 250 g/Ha (*),4 (4=61-80%)
same,"Pre-emergence Test SETFA, percentage damage caused to the plant (five-point scale)",Setaria faberi (SETFA) [1]; 1000 g/ha,5 (5=81-100%)
same,"Pre-emergence Test ECHCG, percentage damage caused to the plant (five-point scale)",[2]; 250 g/Ha (*),3 (3=41-60%)
same,"Pre-emergence Test ECHCG, percentage damage caused to the plant (five-point scale)",[2]; 1000 g/ha,4 (4=61-80%)
same,"Pre-emergence Test ZEAMX, percentage damage caused to the plant (five-point scale)",Zea mays (ZEAMX) [3]; 250 g/Ha (*),0
same,"Pre-emergence Test ZEAMX, percentage damage caused to the plant (five-point scale)",Zea mays (ZEAMX) [3]; 1000 g/ha,1 (1=0-20%)
same,"Pre-emergence Test IPOHE, percentage damage caused to the plant (five-point scale)",[4]; 250 g/Ha (*),0
same,"Pre-emergence Test IPOHE, percentage damage caused to the plant (five-point scale)",[4]; 1000 g/ha,2 (2=21-40%)
same,"Pre-emergence Test AMAPA, percentage damage caused to the plant (five-point scale)",[5]; 250 g/Ha (*),1 (1=0-20%)
same,"Pre-emergence Test AMAPA, percentage damage caused to the plant (five-point scale)",[5]; 1000 g/ha,2 (2=21-40%)
same,"Pre-emergence Test AMARE, percentage damage caused to the plant (five-point scale)",[6]; 250 g/Ha (*),0
same,"Pre-emergence Test AMARE, percentage damage caused to the plant (five-point scale)",[6]; 1000 g/ha,2 (2=21-40%)
same,"percentage damage caused to the plant, SETFA (five-point scale)",Setaria faberi (SETFA) [7]; 250 g/Ha,3 (3=41-60%)
same,"percentage damage caused to the plant, SETFA (five-point scale)",Setaria faberi (SETFA) [7]; 1000 g/ha,4 (4=61-80%)
same,"percentage damage caused to the plant, ECHCG (five-point scale)",[8]; 250 g/Ha,3 (3=41-60%)
same,"percentage damage caused to the plant, ECHCG (five-point scale)",[8]; 1000 g/ha,4 (4=61-80%)
same,"percentage damage caused to the plant, ZEAMX (five-point scale)",Zea mays (ZEAMX) [9]; 250 g/Ha,1 (1=0-20%)
same,"percentage damage caused to the plant, ZEAMX (five-point scale)",Zea mays (ZEAMX) [9]; 1000 g/ha,4 (4=61-80%)
same,"percentage damage caused to the plant, IPOHE (five-point scale)",[10]; 250 g/Ha,3 (3=41-60%)
same,"percentage damage caused to the plant, IPOHE (five-point scale)",[10]; 1000 g/ha,3 (3=41-60%)
same,"percentage damage caused to the plant, AMAPA (five-point scale)",[11]; 250 g/Ha,0
same,"percentage damage caused to the plant, AMAPA (five-point scale)",[11]; 1000 g/ha,2 (2=21-40%)
same,"percentage damage caused to the plant, AMARE (five-point scale)",[12]; 250 g/Ha,0
same,"percentage damage caused to the plant, AMARE (five-point scale)",[12]; 1000 g/ha,1 (1=0-20%)
"CCn1c(Cn2ccc(Cl)n2)cc(=O)c(C(=O)O)c1-c1ccc(C#N)c(Cl)c1 [Compound 119, 2-(3-chloro-4-cyano-phenyl)-6-[(3-chloropyrazol-1-yl)methyl]-1-ethyl-4-oxo-pyridine-3-carboxylic acid]","Pre-emergence Test SETFA, percentage damage caused to the plant (five-point scale)",Setaria faberi (SETFA) [1]; 250 g/Ha (*),3 (3=41-60%)
same,"Pre-emergence Test SETFA, percentage damage caused to the plant (five-point scale)",Setaria faberi (SETFA) [1]; 1000 g/ha,4 (4=61-80%)
same,"Pre-emergence Test ECHCG, percentage damage caused to the plant (five-point scale)",[2]; 250 g/Ha (*),1 (1=0-20%)
same,"Pre-emergence Test ECHCG, percentage damage caused to the plant (five-point scale)",[2]; 1000 g/ha,3 (3=41-60%)
same,"Pre-emergence Test ZEAMX, percentage damage caused to the plant (five-point scale)",Zea mays (ZEAMX) [3]; 250 g/Ha (*),0
same,"Pre-emergence Test ZEAMX, percentage damage caused to the plant (five-point scale)",Zea mays (ZEAMX) [3]; 1000 g/ha,0
same,"Pre-emergence Test IPOHE, percentage damage caused to the plant (five-point scale)",[4]; 250 g/Ha (*),0
same,"Pre-emergence Test IPOHE, percentage damage caused to the plant (five-point scale)",[4]; 1000 g/ha,0
same,"Pre-emergence Test AMAPA, percentage damage caused to the plant (five-point scale)",[5]; 250 g/Ha (*),1 (1=0-20%)
same,"Pre-emergence Test AMAPA, percentage damage caused to the plant (five-point scale)",[5]; 1000 g/ha,1 (1=0-20%)
same,"Pre-emergence Test AMARE, percentage damage caused to the plant (five-point scale)",[6]; 250 g/Ha (*),0
same,"Pre-emergence Test AMARE, percentage damage caused to the plant (five-point scale)",[6]; 1000 g/ha,0
same,"percentage damage caused to the plant, SETFA (five-point scale)",Setaria faberi (SETFA) [7]; 250 g/Ha,1 (1=0-20%)
same,"percentage damage caused to the plant, SETFA (five-point scale)",Setaria faberi (SETFA) [7]; 1000 g/ha,4 (4=61-80%)
same,"percentage damage caused to the plant, ECHCG (five-point scale)",[8]; 250 g/Ha,1 (1=0-20%)
same,"percentage damage caused to the plant, ECHCG (five-point scale)",[8]; 1000 g/ha,4 (4=61-80%)
same,"percentage damage caused to the plant, ZEAMX (five-point scale)",Zea mays (ZEAMX) [9]; 250 g/Ha,0
same,"percentage damage caused to the plant, ZEAMX (five-point scale)",Zea mays (ZEAMX) [9]; 1000 g/ha,0
same,"percentage damage caused to the plant, IPOHE (five-point scale)",[10]; 250 g/Ha,1 (1=0-20%)
same,"percentage damage caused to the plant, IPOHE (five-point scale)",[10]; 1000 g/ha,2 (2=21-40%)
same,"percentage damage caused to the plant, AMAPA (five-point scale)",[11]; 250 g/Ha,0
same,"percentage damage caused to the plant, AMARE (five-point scale)",[12]; 250 g/Ha,1 (1=0-20%)
same,"percentage damage caused to the plant, AMARE (five-point scale)",[12]; 1000 g/ha,0
"CCOC(=O)c1nn(Cc2cc(=O)c(C(=O)O)c(-c3ccc(Cl)c(Cl)c3)n2CC)cc1C [Compound 123, 2-(3,4-dichlorophenyl)-6-[(3-ethoxycarbonyl-4-methyl-pyrazol-1-yl)methyl]-1-ethyl-4-oxo-pyridine-3-carboxylic acid]","Pre-emergence Test SETFA, percentage damage caused to the plant (five-point scale)",Setaria faberi (SETFA) [1]; 1000 g/ha,1 (1=0-20%)
same,"Pre-emergence Test ECHCG, percentage damage caused to the plant (five-point scale)",[2]; 1000 g/ha,0
same,"Pre-emergence Test ZEAMX, percentage damage caused to the plant (five-point scale)",Zea mays (ZEAMX) [3]; 1000 g/ha,0
same,"Pre-emergence Test IPOHE, percentage damage caused to the plant (five-point scale)",[4]; 1000 g/ha,0
same,"Pre-emergence Test AMAPA, percentage damage caused to the plant (five-point scale)",[5]; 1000 g/ha,1 (1=0-20%)
same,"Pre-emergence Test AMARE, percentage damage caused to the plant (five-point scale)",[6]; 1000 g/ha,0
same,"percentage damage caused to the plant, SETFA (five-point scale)",Setaria faberi (SETFA) [7]; 250 g/Ha,0
same,"percentage damage caused to the plant, SETFA (five-point scale)",Setaria faberi (SETFA) [7]; 1000 g/ha,1 (1=0-20%)
same,"percentage damage caused to the plant, ECHCG (five-point scale)",[8]; 250 g/Ha,2 (2=21-40%)
same,"percentage damage caused to the plant, ECHCG (five-point scale)",[8]; 1000 g/ha,1 (1=0-20%)
same,"percentage damage caused to the plant, ZEAMX (five-point scale)",Zea mays (ZEAMX) [9]; 250 g/Ha,0
same,"percentage damage caused to the plant, ZEAMX (five-point scale)",Zea mays (ZEAMX) [9]; 1000 g/ha,1 (1=0-20%)
same,"percentage damage caused to the plant, IPOHE (five-point scale)",[10]; 250 g/Ha,0
same,"percentage damage caused to the plant, IPOHE (five-point scale)",[10]; 1000 g/ha,2 (2=21-40%)
same,"percentage damage caused to the plant, AMAPA (five-point scale)",[11]; 250 g/Ha,0
same,"percentage damage caused to the plant, AMARE (five-point scale)",[12]; 250 g/Ha,0
same,"percentage damage caused to the plant, AMARE (five-point scale)",[12]; 1000 g/ha,1 (1=0-20%)
"CCn1c(Cn2ncnc2OC)cc(=O)c(C(=O)O)c1-c1ccc(Cl)c(Cl)c1 [Compound 124, 2-(3,4-dichlorophenyl)-1-ethyl-6-[(5-methoxy-1,2,4-triazol-1-yl)methyl]-4-oxo-pyridine-3-carboxylic acid]","Pre-emergence Test SETFA, percentage damage caused to the plant (five-point scale)",Setaria faberi (SETFA) [1]; 250 g/Ha (*),0
same,"Pre-emergence Test ECHCG, percentage damage caused to the plant (five-point scale)",[2]; 250 g/Ha (*),0
same,"Pre-emergence Test ZEAMX, percentage damage caused to the plant (five-point scale)",Zea mays (ZEAMX) [3]; 250 g/Ha (*),0
same,"Pre-emergence Test IPOHE, percentage damage caused to the plant (five-point scale)",[4]; 250 g/Ha (*),0
same,"Pre-emergence Test AMAPA, percentage damage caused to the plant (five-point scale)",[5]; 250 g/Ha (*),1 (1=0-20%)
same,"Pre-emergence Test AMARE, percentage damage caused to the plant (five-point scale)",[6]; 250 g/Ha (*),1 (1=0-20%)
same,"percentage damage caused to the plant, SETFA (five-point scale)",Setaria faberi (SETFA) [7]; 250 g/Ha,2 (2=21-40%)
same,"percentage damage caused to the plant, ECHCG (five-point scale)",[8]; 250 g/Ha,4 (4=61-80%)
same,"percentage damage caused to the plant, ZEAMX (five-point scale)",Zea mays (ZEAMX) [9]; 250 g/Ha,1 (1=0-20%)
same,"percentage damage caused to the plant, IPOHE (five-point scale)",[10]; 250 g/Ha,0
same,"percentage damage caused to the plant, AMAPA (five-point scale)",[11]; 250 g/Ha,0
same,"percentage damage caused to the plant, AMARE (five-point scale)",[12]; 250 g/Ha,1 (1=0-20%)
